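Growth conditions: 96-well plates. Treatment: test compound, 48 hours, 5 concentrations. Analysis: linear interpolation between bracketing concentrations; unreached endpoints set to highest concentration. Definition used: TGI = concentration required for complete inhibition of growth.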
How the values were obtained:
Experiment in all cases: NCI anticancer screen, dose series, 48 h
[1] = tested on: 786-0 renal
[2] = tested on: A549 NSCLC
[3] = tested on: ACHN renal
[4] = tested on: BT-549 breast
[5] = tested on: CAKI-1 renal
[6] = tested on: CCRF-CEM leukemia
[7] = tested on: COLO 205 colon
[8] = tested on: DU-145 prostate
[9] = tested on: EKVX NSCLC
[10] = tested on: HCC-2998 colon
[11] = tested on: HCT-116 colon
[12] = tested on: HCT-15 colon
[13] = tested on: HL-60(TB) leukemia
[14] = tested on: HOP-62 NSCLC
[15] = tested on: HOP-92 NSCLC
[16] = tested on: HT29 colon
[17] = tested on: IGROV1 ovarian
[18] = tested on: K-562 leukemia
[19] = tested on: KM12 colon
[20] = tested on: LOX IMVI melanoma
[21] = tested on: M14 melanoma
[22] = tested on: MALME-3M melanoma
[23] = tested on: MCF7 breast
[24] = tested on: MDA-MB-231 breast
[25] = tested on: MDA-MB-435
[26] = tested on: MDA-N
[27] = tested on: MOLT-4 leukemia
[28] = tested on: NCI-H226 lung
[29] = tested on: NCI-H23 lung
[30] = tested on: NCI-H460 lung
[31] = tested on: NCI-H522 lung
[32] = tested on: NCI/ADR-RES ovarian
[33] = tested on: OVCAR-3 ovarian
[34] = tested on: OVCAR-4 ovarian
[35] = tested on: OVCAR-5 ovarian
[36] = tested on: OVCAR-8 ovarian
[37] = tested on: PC-3 prostate
[38] = tested on: RPMI-8226 leukemia
[39] = tested on: RXF 393 renal
[40] = tested on: SF-268 CNS
[41] = tested on: SF-295 CNS
[42] = tested on: SF-539 CNS
[43] = tested on: SK-MEL-2 melanoma
[44] = tested on: SK-MEL-5 melanoma
[45] = tested on: SK-OV-3 ovarian
[46] = tested on: SN12C renal
[47] = tested on: SNB-19 CNS
[48] = tested on: SNB-75 CNS
[49] = tested on: SR leukemia
[50] = tested on: SW-620 colon
[51] = tested on: T-47D breast
[52] = tested on: TK-10 renal
[53] = tested on: U251 CNS
[54] = tested on: UACC-257 melanoma
[55] = tested on: UACC-62 melanoma
[56] = tested on: UO-31 renal
[57] = tested on: HS 578T breast
[58] = tested on: SK-MEL-28 melanoma

Measured: TGI

CC(=O)Nc1ccccc1SCCSSCCSc1ccccc1NC(C)=O
40.5 µM: [7]
50.8 µM: [10]
70.4 µM: [6]
64.3 µM: [1]
52.1 µM: [42]
73.7 µM: [41]
57.1 µM: [34]
61.7 µM: [45]
45 µM: [54]
35.8 µM: [56]
79.2 µM: [35]
41.1 µM: [25]
76.8 µM: [16]
69.8 µM: [2]
73.2 µM: [48]
83.9 µM: [29]
38.7 µM: [20]
64.4 µM: [15]
36.7 µM: [47]
39.1 µM: [3]
70.2 µM: [53]
44.8 µM: [13]
68.6 µM: [30]
88.7 µM: [8]
81.8 µM: [28]
68.7 µM: [26]
91.4 µM: [24]
34.3 µM: [31]
46.8 µM: [17]
83.4 µM: [5]
86.5 µM: [43]
92.9 µM: [51]
42.2 µM: [12] | [38]
94.8 µM: [32]
not listed: [57] | [58]
> 100 µM: all other assays above

Cc1ccc(-c2nc3ccc(Cl)cc3[nH]2)cc1
not listed: [35]
> 100 µM: all other assays above

Cc1ccc(/C=N/Nc2cnccn2)s1
not listed: [8] | [30] | [49]
> 100 µM: all other assays above

— PubChem BioAssay (NCI)
